Like-named read-outs stand apart in the source and are kept apart here.

This passage reports IC50 results from patent publication US20250313563A1, “GLYCOGEN SYNTHASE KINASE 3 INHIBITORS AND USES THEREOF” (The Broad Institute, Inc., priority 2022, published 2025).

Assay [1] addresses GSK3b (GST-full length GSK3b) (Homo sapiens (Human), UniProt P49841). Put plainly: GSK3b TR-FRET kinase assay. It counts as biochemical. The method, boiled down:
(§1)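 IC50s came from the normalized 665/615 TR-FRET ratio after Tb-anti-pSer641 antibody and streptavidin-d2 detection of phosphorylated biotin-glycogen synthase peptide (200 nM). ATP was 4 μM for GSK3α, 2 μM for GSK3b, or 1 mM; 1 nM enzyme, 100 min, ambient, pH 7.5, after 30-min compound preincubation.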
In general terms: In TR-FRET formats the signal depends on donor and acceptor labels being close together.

Assay [2] deals with GSK3α (GST-full length GSK3α) (Homo sapiens (Human), UniProt P49840). Kind of assay: GSK3α TR-FRET kinase assay. Format: biochemical. The method, boiled down:
as §1

Where [3] appears, read: 1 nM GSK3b, 2 μM ATP, 30 minute preincubation, geometric mean, read-out: GSK3-B TR-FRET BIOCHEMICAL (TR-FRET), GMean, IC50.
Where [4] appears, read: 1 nM GSK3α, 4 μM ATP, 30 minute preincubation, geometric mean, read-out: GSK3-A TR-FRET BIOCHEMICAL (TR-FRET), GMean, IC50.
[5] abbreviates: 1 nM GSK3b, 2 μM ATP, 30 minute preincubation, Table 16, read-out: GSK3-B TR-FRET BIOCHEMICAL (TR-FRET), IC50.
Setting [6] is: 1 nM GSK3α, 4 μM ATP, 30 minute preincubation, Table 16, read-out: GSK3-A TR-FRET BIOCHEMICAL (TR-FRET), IC50.
Where [7] appears, read: 1 nM GSK3b, 2 μM ATP, 30 minute preincubation, Table 16, read-out: GSK3-B TR-FRET BIOCHEMICAL (TR-FRET).
Where [8] appears, read: 1 nM GSK3α, 4 μM ATP, 30 minute preincubation, Table 16, read-out: GSK3-A TR-FRET BIOCHEMICAL (TR-FRET).
Setting [9] is: 1 nM GSK3b, 2 μM ATP, 30 minute preincubation, read-out: GSK3-B TR-FRET BIOCHEMICAL (TR-FRET), IC50.
Setting [10] is: 1 nM GSK3α, 4 μM ATP, 30 minute preincubation, read-out: GSK3-A TR-FRET BIOCHEMICAL (TR-FRET), IC50.
Where [11] appears, read: GSK3-B (TR-FRET 1 mM ATP), GMean, IC50, 1 mM ATP, geometric mean.
[12] abbreviates: GSK3-A (TR-FRET 1 mM ATP), GMean, IC50, 1 mM ATP, geometric mean.

Chain of GSK3α (GST-full length GSK3α) (P49840 whole entry): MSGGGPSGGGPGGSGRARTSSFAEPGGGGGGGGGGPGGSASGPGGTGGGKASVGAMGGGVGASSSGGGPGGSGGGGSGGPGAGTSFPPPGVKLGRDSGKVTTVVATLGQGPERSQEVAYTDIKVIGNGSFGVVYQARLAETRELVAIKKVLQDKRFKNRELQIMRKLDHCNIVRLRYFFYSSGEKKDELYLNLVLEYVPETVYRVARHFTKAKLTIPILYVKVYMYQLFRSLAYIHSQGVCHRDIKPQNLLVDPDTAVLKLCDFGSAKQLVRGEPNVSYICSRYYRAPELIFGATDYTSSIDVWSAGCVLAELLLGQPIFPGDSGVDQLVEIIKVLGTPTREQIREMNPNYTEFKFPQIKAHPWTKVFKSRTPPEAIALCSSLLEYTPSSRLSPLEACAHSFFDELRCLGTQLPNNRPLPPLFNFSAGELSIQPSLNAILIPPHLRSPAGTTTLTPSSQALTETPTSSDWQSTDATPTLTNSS
Chain of GSK3b (GST-full length GSK3b) (P49841 whole entry): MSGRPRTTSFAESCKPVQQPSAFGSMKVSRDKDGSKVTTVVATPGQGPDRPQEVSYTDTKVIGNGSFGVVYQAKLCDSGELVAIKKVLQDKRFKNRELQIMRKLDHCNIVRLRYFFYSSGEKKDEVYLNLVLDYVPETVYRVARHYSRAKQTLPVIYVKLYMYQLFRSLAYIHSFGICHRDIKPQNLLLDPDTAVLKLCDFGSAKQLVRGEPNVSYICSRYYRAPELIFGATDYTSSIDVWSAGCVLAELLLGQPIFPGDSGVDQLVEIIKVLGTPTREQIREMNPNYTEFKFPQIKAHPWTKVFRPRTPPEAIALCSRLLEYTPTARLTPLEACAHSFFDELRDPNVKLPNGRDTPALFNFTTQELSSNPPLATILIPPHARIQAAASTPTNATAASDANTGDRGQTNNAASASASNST

On to `CC[C@@]1(c2cccc(-c3c(C)c(C)nn3C)c2)C2=C(CC(C)(C)NC2=O)Nc2n[nH]cc21` [Compound 948818], for which the IC50 in assay [1] (setting [3]) and in assay [2] (setting [4]) was over 5000 nM in each case.
`CCC1(c2cccc(C(F)(F)F)c2)C2=C(CCN(c3cnn(C)c3C)C2=O)Nc2n[nH]cc21` (centres unmarked) [Compound 950612]: the values for the IC50 in assay [1] (setting [5]) and in assay [2] (setting [6]) were 1000 to 5000 nM and at most 100 nM, respectively.
Consider `CCC1(c2cccc(C(F)(F)F)c2)C2=C(CC(C)(C)CC2=O)Nc2n[nH]c(Br)c21` (centres unmarked) [Compound 810464], for which the IC50 in assay [1] (setting [3]) and in assay [2] (setting [4]) was 1000 to 5000 nM in each case.
Take `CC1(C)CC(=O)C2=C(C1)Nc1n[nH]c(C3CC(F)(F)C3)c1C21COc2ccccc21` (centres unmarked) [Compound 127429]: the IC50 in assay [1] (read-out: GSK3-B (TR-FRET 1 mM ATP), GMean, IC50, 1 mM ATP, geometric mean) is 1000 to 5000 nM; in assay [2] (read-out: GSK3-A (TR-FRET 1 mM ATP), GMean, IC50, 1 mM ATP, geometric mean), over 5000 nM.
With `CCC1(c2cccc(N3CCCc4ncccc43)c2)C2=C(CC(C)(C)CC2=O)Nc2n[nH]cc21` (centres unmarked) [Compound 917079], the IC50 in assay [1] (setting [5]) fell in the range of 1000 to 5000 nM; in assay [2] (setting [6]), 100 to 1000 nM.
With `CC[C@]1(c2ccccc2)C2=C(CC3(CC3)CC2=O)Nc2n[nH]cc21` [Compound 790616], the IC50 in assay [1] (setting [3]) and in assay [2] (setting [4]) was over 5000 nM each time.
On to `CC[C@]1(c2cccc(-c3ccncc3F)c2)C2=C(CC(C)(C)NC2=O)Nc2[nH]nc(C(F)(F)F)c21` [Compound 948770], for which the IC50 in assay [1] (setting [3]) and in assay [2] (setting [4]) was 100 to 1000 nM throughout.
In the case of `Cc1cc(S(=O)(=O)N2CCC3(CC2)C2=C(CC(C)(C)CC2=O)Nc2n[nH]cc23)c(C)s1` [Compound 945674], the IC50 was 100 to 1000 nM in assay [1] (setting [7]) and at most 100 nM in assay [2] (setting [8]).
On to `CCC1(c2cccc(C(F)(F)F)c2)C2=C(CC(c3ccccc3)NC2=O)Nc2n[nH]cc21` (centres unmarked) [Compound 917284], for which the results for the IC50 in assay [1] (setting [9]) and in assay [2] (setting [10]) were 1000 to 5000 nM and 100 to 1000 nM, respectively.
On to `CC[C@@]1(c2cccc(OC(C)C)c2)C2=C(CC(C)(C)CC2=O)Nc2n[nH]c(C(F)(F)F)c21` [Compound 947872], for which the IC50 in assay [1] (setting [7]) is 1000 to 5000 nM; in assay [2] (setting [8]), 100 to 1000 nM.
With `CC1(C)CC(=O)C2=C(C1)Nc1n[nH]cc1[C@]2(C)c1cccc(-c2ccccc2)c1` [Compound 801367], the results for the IC50 in assay [1] (setting [3]) and in assay [2] (setting [4]) were 100 to 1000 nM and at most 100 nM, respectively.
Regarding `CC[C@]1(c2ccccc2)C2=C(CC(C)(C)[C@@H](F)C2=O)Nc2n[nH]cc21` [Compound 957404], the IC50 in assay [1] (setting [7]) and in assay [2] (setting [8]) was over 5000 nM in each case.
For the compound `CCC1(c2cccc(-c3ccnc(O)c3)c2)C2=C(CC(C)(C)CC2=O)Nc2n[nH]cc21` (centres unmarked) [Compound 913352], the IC50 in assay [1] (setting [5]) and in assay [2] (setting [6]) was at most 100 nM in each case.
With `CC[C@@]1(c2cccc(C(F)(F)F)c2)C2=C(CCN(c3cn(C)c(C)n3)C2=O)Nc2n[nH]cc21` [Compound 952478], the IC50 in assay [1] (setting [5]) is over 5000 nM; in assay [2] (setting [6]), 1000 to 5000 nM.
Take `C[C@@H]1C[C@H](C)C[C@@]2(C1)C1=C(CC(C)(C)CC1=O)Nc1n[nH]cc12` [Compound 884113]: the IC50 in assay [1] (setting [7]) lay within 1000 to 5000 nM; in assay [2] (setting [8]), 100 to 1000 nM.
As to `CC[C@]1(c2cccc(-c3ccnc4ccc(Cl)cc34)c2)C2=C(CC(C)(C)N(C)C2=O)Nc2n[nH]cc21` [Compound 948517], the IC50 in assay [1] (setting [3]) and in assay [2] (setting [4]) was at most 100 nM each time.
Turning to `CC1(C)CC(=O)C2=C(C1)Nc1n[nH]cc1C21CN(S(=O)(=O)C2CCCC2)C1` [Compound 917139], the IC50 in assay [1] (setting [7]) is at most 100 nM; in assay [1] (setting [11]) it was 100 to 1000 nM; in assay [2] (setting [8]), at most 100 nM; in assay [2] (setting [12]) it was 100 to 1000 nM.
In the case of `CC[C@]1(c2cccc(-c3ccnn3C)c2)C2=C(CC3(CCOCC3)NC2=O)Nc2n[nH]cc21` [Compound 948526], the IC50 in assay [1] (setting [3]) was over 5000 nM; in assay [2] (setting [4]), 1000 to 5000 nM.
As for `CCC1(c2ccccc2)C2=C(CSCC2=O)Nc2n[nH]cc21` (centres unmarked) [Compound 801406], the results for the IC50 in assay [1] (setting [9]) and in assay [2] (setting [10]) were over 5000 nM and 1000 to 5000 nM, respectively.
For `CCC1(c2cccc(C(F)(F)F)c2)C2=C(CCN(c3cccnc3)C2=O)Nc2n[nH]cc21` (centres unmarked) [Compound 947433], the IC50 in assay [1] (setting [3]) and in assay [2] (setting [4]) was over 5000 nM in each case.
Take `CCC1(c2cccc(-c3ccnc(C(F)(F)F)c3)c2)C2=C(CC(C)(C)CC2=O)Nc2n[nH]c(C)c21` (centres unmarked) [Compound 913020]: the IC50 in assay [1] (setting [5]) and in assay [2] (setting [6]) was at most 100 nM in each case.
On to `CCC1(c2cccc(N3CCCC3)c2)C2=C(CC(C)(C)CC2=O)Nc2n[nH]cc21` (centres unmarked) [Compound 801317], for which the IC50 in assay [1] (setting [3]) and in assay [2] (setting [4]) was 100 to 1000 nM in each case.
`CC1(C)CC(=O)C2=C(C1)Nc1n[nH]cc1C21COC2(CN(C(=O)C(F)F)C2)C1` (centres unmarked) [Compound 947485]: the IC50 in assay [1] (setting [9]) and in assay [2] (setting [10]) was at most 100 nM each time.
With `CC1(C)CC2=C(C(=O)N1)C1(CCN(S(C)(=O)=O)CC1)c1c[nH]nc1N2` [Compound 943959], the IC50 in assay [1] (setting [9]) is 100 to 1000 nM; in assay [2] (setting [10]), at most 100 nM.
Take `CC[C@@]1(c2cccc(N(C)C(=O)c3ccn(C)n3)c2)C2=C(CC(C)(C)CC2=O)Nc2n[nH]cc21` [Compound 929455]: the IC50 in assay [1] (setting [5]) and in assay [2] (setting [6]) was over 5000 nM in each case.
Take `CC1(C)CC(=O)C2=C(Nc3n[nH]cc3C23CCN(S(=O)(=O)c2cccc(C(F)(F)F)c2)CC3)[C@@H]1F` [Compound 951703]: the IC50 in assay [1] (setting [7]) was at most 100 nM; in assay [1] (setting [11]), 1000 to 5000 nM; in assay [2] (setting [8]), at most 100 nM; in assay [2] (setting [12]), 100 to 1000 nM.
In the case of `CC[C@]1(c2cccc(-c3cc(C)ncc3F)c2)C2=C(CC(C)(C)NC2=O)Nc2n[nH]cc21` [Compound 947822], the values for the IC50 in assay [1] (setting [3]) and in assay [2] (setting [4]) were over 5000 nM and 100 to 1000 nM, respectively.
On to `CCC1(c2cccc(N3CCC3(C)C)c2)C2=C(CC(C)(C)CC2=O)Nc2n[nH]cc21` (centres unmarked) [Compound 913141], for which the IC50 in assay [1] (setting [5]) was in the range of 1000 to 5000 nM; in assay [2] (setting [6]) it was 100 to 1000 nM.
Turning to `CC1(C)CC(=O)C2=C(C1)Nc1n[nH]cc1C21CCCSCC1` (centres unmarked) [Compound 913126], the IC50 in assay [1] (setting [7]) is 100 to 1000 nM; in assay [2] (setting [8]), at most 100 nM.
Consider `CC[C@@]1(c2cccc(-c3ccnn3C)c2)C2=C(CC3(CCS(=O)(=O)CC3)NC2=O)Nc2n[nH]cc21` [Compound 949400], for which the values for the IC50 in assay [1] (setting [5]) and in assay [2] (setting [6]) were over 5000 nM and 1000 to 5000 nM, respectively.
On to `CC1(C)CC(=O)C2=C(C1)Nc1n[nH]c(Br)c1C21CCc2c(F)cccc21` (centres unmarked) [Compound 801358], for which the IC50 in assay [1] (setting [3]) and in assay [2] (setting [4]) was at most 100 nM each time.
As for `CC(=O)N1C[C@]2(C[C@@]3(CO2)C2=C(CC(C)(C)CC2=O)Nc2n[nH]cc23)[C@H]1C` [Compound 948439], the IC50 in assay [1] (setting [9]), in assay [1] (setting [11]), in assay [2] (setting [10]) and in assay [2] (setting [12]) was at most 100 nM in each case.
As to `CCC1(c2cccc(N(C)c3ccncn3)c2)C2=C(CC(C)(C)CC2=O)Nc2n[nH]cc21` (centres unmarked) [Compound 902970], the figures for the IC50 in assay [1] (setting [5]) and in assay [2] (setting [6]) were 100 to 1000 nM and at most 100 nM, respectively.
With `CCC1(c2cccc(Nc3ncccn3)c2)C2=C(CC(C)(C)CC2=O)Nc2n[nH]cc21` (centres unmarked) [Compound 913334], the IC50 in assay [1] (setting [5]) was 100 to 1000 nM; in assay [2] (setting [6]), at most 100 nM.
As to `CCN(c1cccnc1)c1cccc(C2(CC)C3=C(CC(C)(C)CC3=O)Nc3n[nH]cc32)c1` (centres unmarked) [Compound 917089], the IC50 in assay [1] (setting [5]) lay in the range of 1000 to 5000 nM; in assay [2] (setting [6]) it was 100 to 1000 nM.
On to `CCC1(c2cccc(-c3cnn(CCN4CCCC4)c3)c2)C2=C(CC(C)(C)NC2=O)Nc2n[nH]cc21` (centres unmarked) [Compound 952022], for which the IC50 in assay [1] (setting [5]) lay in the range of 1000 to 5000 nM; in assay [2] (setting [6]), 100 to 1000 nM.
On the same counts, the results for `CC[C@@]1(c2cccc(C(F)(F)F)c2)C2=C(CC(C)(C)NC2=O)Nc2n[nH]c(F)c21` [Compound 957497] are over 5000 nM and over 5000 nM.
